Measured values as given in patent publication US10703698B2, “Compounds which activate estrogen receptors and compositions and methods of using the same” (The Board of Trustees of the University of Illinois, priority 2016, dated 2020).
“Also recorded” adds a separate entry of the source.

Experiments:
[1] = system: ovariectomized C57BL/6 mice; conditions: mouse, in vivo
[2] = system: eNOS; test: eNOS activation in primary endothelial cells (14C-L-arginine to 14C-L-citrulline); type: cell-based, bovine; conditions: 15 min; 10 nM ligand (FIG. 9E)
[3] = target: T1, ERα-SRC3 interaction (Homo sapiens, UniProt P03372); test: co-immunoprecipitation of ERα and SRC3 in MCF-7 cells; type: cell-based; conditions: 10 nM E2 or 1 μM PaPE-1, 1 h
T1 construct: endogenous in cells; host or cells: MCF-7
T1 sequence (P03372 1-595): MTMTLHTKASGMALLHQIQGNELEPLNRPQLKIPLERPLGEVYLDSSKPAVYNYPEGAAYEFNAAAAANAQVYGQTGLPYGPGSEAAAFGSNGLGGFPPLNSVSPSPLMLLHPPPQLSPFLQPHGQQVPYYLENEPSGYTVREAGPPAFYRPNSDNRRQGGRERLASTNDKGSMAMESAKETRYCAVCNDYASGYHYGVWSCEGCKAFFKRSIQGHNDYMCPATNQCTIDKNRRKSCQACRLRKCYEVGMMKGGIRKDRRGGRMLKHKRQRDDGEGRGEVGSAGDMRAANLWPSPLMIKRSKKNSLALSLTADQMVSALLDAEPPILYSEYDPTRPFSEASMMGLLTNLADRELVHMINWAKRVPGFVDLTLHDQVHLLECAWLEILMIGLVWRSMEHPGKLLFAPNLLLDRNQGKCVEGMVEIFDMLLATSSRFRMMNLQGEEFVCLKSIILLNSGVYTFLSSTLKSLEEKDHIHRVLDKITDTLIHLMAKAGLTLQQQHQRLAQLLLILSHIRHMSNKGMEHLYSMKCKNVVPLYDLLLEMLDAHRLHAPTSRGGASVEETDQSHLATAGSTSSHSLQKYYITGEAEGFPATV
Text: FIG. 10. Estrogen receptor and coactivator binding and interaction assays with ligands and ligand dissociation rates. […] After ligand treatment, cell lysates were immunoprecipitated with antibody to SRC3 or control IgG, and immunoprecipitates were separated on SDS PAGE gels and blotted for ERα using anti-ERα antibody. […] For details, see methods below.
(§1) Western blot analysis used specific antibodies for ERα (HC-20, Santa Cruz); ERK2 (D-2, Santa Cruz); and pS^6, pS6K, pmTOR, pRAPTOR, pRICTOR, pMAPK (Cell Signaling). Coimmunoprecipitation assays used antibodies for SRC3 (Santa Cruz, C-20) and ERα (Santa Cruz, F10).

[4] = system: ERα knock-out (ERKO) C57BL/6 mice; test: effects in ERα knock-out (ERKO) mice; type: in vivo; conditions: 3 weeks; listed as PaPE-1
Protocol: FIG. 13. Effects of PaPE-1 require ERα. […] Animals were on normal chow diet. Change in body weight was monitored. (B) Uterus weights of animals from (A) at the end of 3 weeks of vehicle (Veh) or ligand treatment. (C) Triglyceride levels in the blood of animals from (A) after 3 weeks of ligand exposure.
Studies used wild type and ERα knockout mice in C57BL/6 background. All experiments involving animals were conducted in accordance with National Institutes of Health standards for the use and care of animals, with protocols approved by the University of Illinois at Urbana-Champaign and the University of Texas Southwestern Medical Center. Wild-type C57BL/6 mice were purchased from Jackson Laboratories/National Cancer Institute. ERα knockout mice with complete excision of ERα and wild type littermates were obtained from Taconic and were used as described previously in Dupont et al., Development, 127, 4277-4291, […], and Hewitt et al. FASEB J., 24, 4660-4667, 2010.

[5] = target: T2, ERα and RAPTOR (Homo sapiens, UniProt P03372); test: proximity ligation assay in MCF-7 cells; type: cell-based; conditions: 10 nM E2 or 1 μM PaPE-1, 15 min
T2 construct: endogenous in cells; host or cells: MCF-7
T2 sequence (P03372 1-595): T1 sequence (P03372 1-595)
Protocol: Next day, the proximity ligation assay (PLA) was performed using the Duolink In Situ kit (Olink Bioscience) according to the manufacturer's instructions, as described in Zhao et. al., Endocrinology, 154, 1349-1360, 2013. Briefly, overnight incubation with primary antibodies was followed by hybridization with two PLA probes at 37° C. for 1 h, and then by ligation for 15 min and amplification for 90 min at 37° C. A coverslip was mounted on each slide and image acquisition and analysis conducted. Samples were imaged using a 63×/1.4 Oil DIC M27 objective in a Zeiss LSM 700 or 710 laser scanning confocal microscope. Images were obtained in a sequential manner using a 488 Ar (10 mW) laser line for PLA signal. The individual channels for DAPI and PLA signal were obtained using a sequential scanning mode to prevent bleed-through of the excitation signal. Laser power, gain and offset were kept constant across the samples and scanned in a high resolution format of 512×512 or 1024×1024 pixels with 2/4 frames averaging. Further quantification of the images used Fiji software (http://fiji.sc/wiki/index.php/Fiji). Briefly, images were converted to 8 bit for segmentation for each channel, and images were background subtracted using a rolling-ball method, with a pixel size of 100 and segmented using the DAPI channel.

[6] = system: mTOR and MAPK signaling; test: Western blot of signaling pathway activation in MCF-7 cells; type: cell-based, human
Text: as §1

[7] = system: ovariectomized C57BL/6 mice; test: stroke model, transient middle cerebral artery occlusion (tMCAo)
[8] = system: MCF-7 cells; test: MCF-7 cell proliferation, WST-1 assay; type: cell-based, human; conditions: 6 days
Protocol: Cells were seeded at 1000 cells/well in 96-well plates.

[9] = system: LRRC54 gene; test: LRRC54 (non-genomic gene) mRNA expression, qPCR; conditions: for LRRC54 (non-genomic gene) mRNA expression, in words: MCF-7 cells, 1 μM PaPE or 10 nM E2 for 4 h where stated, versus vehicle, E2 or compound 2

uterine wet weight [1]: no effect
SMILES: Cc1cc(-c2ccc3c(c2)CCC3O)cc(C)c1O (racemic) [Compound 2, 5-(4-hydroxy-3,5-dimethylphenyl)-2,3-dihydro-1H-inden-1-ol]
eNOS / NOS activity [2]: comparable response | coimmunoprecipitation of ERα with SRC3 [3]: no coimmunoprecipitated complexes were observed | ability to diminish body weight gain after ovariectomy in ERKO mice [4]: lost in the ERKO mice; also recorded: require ERα | interaction of ERα with RAPTOR [5]: to a greater extent; also recorded: induces interaction between ERα and Raptor | Serl 18 phosphorylation of ERα [6]: did not induce any detectable | activation of mTOR, MAPK (and AKT) signaling ([6]; listed as PaPE-1): very efficient in activating mTOR and MAPK signaling; also recorded: selectively activated mTOR and MAPK signaling | severity of CNS injury on MRI ([7]; 3 and 7 days): decreased compared with control treatment | infarct volumes ([7]; 3d and 7d post-tMCAo, compared with vehicle): significantly reduced infarct volumes | degree of swelling associated with the injury ([7]; 3 days post-stroke): attenuated | reduction of leukocytes infiltrated in the brain ([7]; 3 days post-stroke): 93% | rotorod functional recovery, of baseline ([7]; 6d post-tMCAo): 85% | rotorod functional recovery, of baseline ([7]; 13d post-tMCAo): 82% | rotorod function post-stroke, in words ([7]; mouse, in vivo): improved function post-stroke | proliferation of MCF-7 cells [8]: did not stimulate proliferation | LRRC54 activation, fold higher level than E2 ([9]; FIG. 14): 1.9 fold | LRRC54 (non-genomic gene) mRNA expression, in words [9]: equivalent activities | LRRC54 (non-genomic gene) mRNA expression, in words ([9]; listed as PaPE-1): LRRC54 stimulation
